According to the NIST ThermoML archive (doi:10.1021/je060271a):
Numbers after ± are expanded uncertainties.

Conditions: 283.15 K, Liquid, Vibrating tube method

CCCC(=O)OCC(COC(=O)CCC)(COC(=O)CCC)COC(=O)CCC [pentaerythritol tetrabutyrate]
Conditions	mass density [kg/m3]
18306 kPa	1069.5 ± 1.3
18318 kPa	1069.6 ± 1.3
18328 kPa	1069.5 ± 1.3
18338 kPa	1069.5 ± 1.3
18351 kPa	1069.5 ± 1.3
18864 kPa	1069.8 ± 1.3
18899 kPa	1069.8 ± 1.3
18956 kPa	1069.9 ± 1.3
18967 kPa	1069.8 ± 1.3
18980 kPa	1069.6 ± 1.3
18991 kPa	1069.8 ± 1.3
19143 kPa	1069.9 ± 1.3
19349 kPa	1070.2 ± 1.3
19360 kPa	1070.1 ± 1.3
19371 kPa	1070.1 ± 1.3
19383 kPa	1070 ± 1.3
19397 kPa	1070.1 ± 1.3
19419 kPa	1070.1 ± 1.3
19433 kPa	1070.3 ± 1.3
19458 kPa	1070.2 ± 1.3
19470 kPa	1070.1 ± 1.3
20345 kPa	1070.6 ± 1.3
20358 kPa	1070.6 ± 1.3
20371 kPa	1070.7 ± 1.3
20383 kPa	1070.7 ± 1.3
20398 kPa	1070.7 ± 1.3
20411 kPa	1070.7 ± 1.3
20426 kPa	1070.8 ± 1.3
20439 kPa	1070.8 ± 1.3
20452 kPa	1070.6 ± 1.3
20631 kPa	1070.8 ± 1.3
20647 kPa	1070.9 ± 1.3
20659 kPa	1070.9 ± 1.3
20673 kPa	1070.8 ± 1.3
20689 kPa	1070.8 ± 1.3
20702 kPa	1070.8 ± 1.3
20718 kPa	1070.8 ± 1.3
20731 kPa	1070.8 ± 1.3
20744 kPa	1070.9 ± 1.3
20757 kPa	1070.9 ± 1.3
20943 kPa	1071 ± 1.3
20960 kPa	1071 ± 1.3
20973 kPa	1071 ± 1.3
20987 kPa	1071 ± 1.3
21354 kPa	1071.2 ± 1.3
21371 kPa	1071.2 ± 1.3
21386 kPa	1071.4 ± 1.3
21583 kPa	1071.3 ± 1.3
21614 kPa	1071.3 ± 1.3
21629 kPa	1071.5 ± 1.3
21646 kPa	1071.3 ± 1.3
21661 kPa	1071.2 ± 1.3
21676 kPa	1071.4 ± 1.3
21691 kPa	1071.4 ± 1.3
21708 kPa	1071.3 ± 1.3
21738 kPa	1071.4 ± 1.3
21756 kPa	1071.4 ± 1.3
21770 kPa	1071.4 ± 1.3
21833 kPa	1071.5 ± 1.3
21848 kPa	1071.5 ± 1.3
21866 kPa	1071.5 ± 1.3
21881 kPa	1071.5 ± 1.3
21895 kPa	1071.5 ± 1.3
21910 kPa	1071.5 ± 1.3
21928 kPa	1071.5 ± 1.3
21943 kPa	1071.7 ± 1.3
21958 kPa	1071.6 ± 1.3
21976 kPa	1071.6 ± 1.3
21991 kPa	1071.5 ± 1.3
22008 kPa	1071.6 ± 1.3
22350 kPa	1071.7 ± 1.3
22366 kPa	1071.8 ± 1.3
22381 kPa	1071.6 ± 1.3
